Experimental data: ChEMBL document CHEMBL1201862, “PubChem BioAssay data set” (2004)
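All cell lines were grown in 96-well plates and treated with compound for 48 hours. GI50: concentration for 50% inhibition of growth.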 Calls of active or inactive are those of the source. Cut-off read from the data, not from the text of the source: active = GI50 up to about 1.1 µM and inactive = higher.

Tests used:
Test in all cases: growth of human tumour cells (NCI), 48 h
[1] = system: A549
[2] = system: EKVX
[3] = system: COLO 205
[4] = system: LOX IMVI
[5] = system: MOLT-4
[6] = system: ACHN
[7] = system: OVCAR-3
[8] = system: PC-3
[9] = system: SK-OV-3
[10] = system: HOP-92
[11] = system: RPMI-8226
[12] = system: SW-620
[13] = system: MCF7
[14] = system: SK-MEL-2
[15] = system: 786-0
[16] = system: HCT-15
[17] = system: MDA-N
[18] = system: Hs-578T
[19] = system: HOP-62
[20] = system: BT-549
[21] = system: K562
[22] = system: IGROV-1
[23] = system: HCT-116
[24] = system: Malme-3M
[25] = system: SNB-19
[26] = system: MDA-MB-231
[27] = system: UACC-62
[28] = system: SK-MEL-5
[29] = system: T47D
[30] = system: SF-295
[31] = system: OVCAR-8
[32] = system: KM12
[33] = system: NCI-H23
[34] = system: NCI-H226
[35] = system: U-251
[36] = system: SF-268
[37] = system: A498
[38] = system: OVCAR-5
[39] = system: HL-60
[40] = system: OVCAR-4
[41] = system: HT-29
[42] = system: NCI-H522
[43] = system: CCRF-CEM
[44] = system: MDA-MB-435
[45] = system: SN12C
[46] = system: SR
[47] = system: M14
[48] = system: DU-145
[49] = system: CAKI-1
[50] = system: NCI/ADR-RES
[51] = system: UO-31
[52] = system: SF-539
[53] = system: TK-10
[54] = system: SK-MEL-28
[55] = system: RXF 393
[56] = system: UACC-257
[57] = system: SNB-75
[58] = system: NCI-H460

## COc1ccc2c3c1O[C@H]1C(=O)C=CC4(n5[nH]c(=O)n(-c6ccccc6)c5=O)C(C2)N(C)CCC314 (stereo not given in full)
[1]
  GI50: > 100 µM (inactive)
[2]
  GI50: > 100 µM (inactive)
[3]
  GI50: > 100 µM (inactive)
[4]
  GI50: > 100 µM (inactive)
[5]
  GI50: > 100 µM (inactive)
[6]
  GI50: > 100 µM (inactive)
[7]
  GI50: > 100 µM (inactive)
[8]
  GI50: > 100 µM (inactive)
[9]
  GI50: > 100 µM (inactive)
[10]
  GI50: > 100 µM (inactive)
[11]
  GI50: > 100 µM (inactive)
[12]
  GI50: > 100 µM (inactive)
[13]
  GI50: > 100 µM (inactive)
[14]
  GI50: > 100 µM (inactive)
[15]
  GI50: > 100 µM (inactive)
[16]
  GI50: > 100 µM
[17]
  GI50: > 100 µM (inactive)
[18]
  GI50: > 100 µM (inactive)
[19]
  GI50: > 100 µM (inactive)
[20]
  GI50: > 100 µM (inactive)
[21]
  GI50: > 100 µM (inactive)
[22]
  GI50: > 100 µM (inactive)
[23]
  GI50: > 100 µM (inactive)
[24]
  GI50: > 100 µM (inactive)
[25]
  GI50: > 100 µM (inactive)
[26]
  GI50: > 100 µM (inactive)
[27]
  GI50: > 100 µM (inactive)
[28]
  GI50: > 100 µM (inactive)
[29]
  GI50: > 100 µM (inactive)
[30]
  GI50: > 100 µM (inactive)
[31]
  GI50: > 100 µM (inactive)
[32]
  GI50: > 100 µM (inactive)
[33]
  GI50: > 100 µM (inactive)
[34]
  GI50: > 100 µM (inactive)
[35]
  GI50: > 100 µM (inactive)
[36]
  GI50: > 100 µM (inactive)
[37]
  GI50: > 100 µM (inactive)
[38]
  GI50: > 100 µM (inactive)
[39]
  GI50: > 100 µM (inactive)
[40]
  GI50: > 100 µM (inactive)
[41]
  GI50: > 100 µM (inactive)
[42]
  GI50: > 100 µM (inactive)
[43]
  GI50: > 100 µM (inactive)
[44]
  GI50: > 100 µM (inactive)
[45]
  GI50: > 100 µM (inactive)
[46]
  GI50: > 100 µM (inactive)
[47]
  GI50: > 100 µM (inactive)
[48]
  GI50: > 100 µM (inactive)
[49]
  GI50: > 100 µM (inactive)
[50]
  GI50: > 100 µM (inactive)
[51]
  GI50: > 100 µM (inactive)
[52]
  GI50: > 100 µM (inactive)
[53]
  GI50: > 100 µM (inactive)
[54]
  GI50: > 100 µM (inactive)

## Cc1ncc(CSc2ccccc2N)c(CO)c1O
[1]
  GI50: > 100 µM (inactive)
[2]
  GI50: > 100 µM (inactive)
[3]
  GI50: > 100 µM (inactive)
[55]
  GI50: > 100 µM (inactive)
[4]
  GI50: > 100 µM (inactive)
[5]
  GI50: > 100 µM (inactive)
[6]
  GI50: > 100 µM (inactive)
[7]
  GI50: > 100 µM (inactive)
[8]
  GI50: > 100 µM (inactive)
[9]
  GI50: > 100 µM (inactive)
[10]
  GI50: > 100 µM (inactive)
[11]
  GI50: > 100 µM (inactive)
[12]
  GI50: > 100 µM (inactive)
[13]
  GI50: > 100 µM (inactive)
[14]
  GI50: > 100 µM (inactive)
[15]
  GI50: > 100 µM (inactive)
[16]
  GI50: > 100 µM
[17]
  GI50: > 100 µM (inactive)
[18]
  GI50: > 100 µM (inactive)
[19]
  GI50: > 100 µM (inactive)
[20]
  GI50: > 100 µM (inactive)
[21]
  GI50: > 100 µM (inactive)
[22]
  GI50: > 100 µM (inactive)
[23]
  GI50: > 100 µM (inactive)
[24]
  GI50: > 100 µM (inactive)
[25]
  GI50: > 100 µM (inactive)
[56]
  GI50: > 100 µM (inactive)
[26]
  GI50: > 100 µM (inactive)
[27]
  GI50: 65.8 µM (inactive)
[28]
  GI50: > 100 µM (inactive)
[57]
  GI50: > 100 µM (inactive)
[29]
  GI50: > 100 µM (inactive)
[30]
  GI50: > 100 µM (inactive)
[31]
  GI50: > 100 µM (inactive)
[32]
  GI50: > 100 µM (inactive)
[33]
  GI50: > 100 µM (inactive)
[34]
  GI50: > 100 µM (inactive)
[35]
  GI50: > 100 µM (inactive)
[36]
  GI50: > 100 µM (inactive)
[37]
  GI50: > 100 µM (inactive)
[38]
  GI50: > 100 µM (inactive)
[40]
  GI50: > 100 µM (inactive)
[41]
  GI50: > 100 µM (inactive)
[42]
  GI50: > 100 µM (inactive)
[44]
  GI50: > 100 µM (inactive)
[45]
  GI50: > 100 µM (inactive)
[46]
  GI50: > 100 µM (inactive)
[47]
  GI50: > 100 µM (inactive)
[48]
  GI50: > 100 µM (inactive)
[49]
  GI50: > 100 µM (inactive)
[50]
  GI50: > 100 µM (inactive)
[52]
  GI50: > 100 µM (inactive)
[53]
  GI50: > 100 µM (inactive)
[54]
  GI50: > 100 µM (inactive)

## COc1ccc(C(=O)/C=C/c2ccc(Oc3cc(C(=O)/C=C/c4ccc(O)cc4)c(O)cc3OC)cc2)c(O)c1 [RHUSCHALCONE I]
[1]
  GI50: 8.71 µM (inactive)
[2]
  GI50: 4.01 µM (inactive)
[3]
  GI50: 4.34 µM (inactive)
[55]
  GI50: 2.56 µM (inactive)
[4]
  GI50: 2.27 µM (inactive)
[58]
  GI50: 4.33 µM (inactive)
[5]
  GI50: 2.52 µM (inactive)
[6]
  GI50: 2.9 µM (inactive)
[7]
  GI50: 4.3 µM (inactive)
[8]
  GI50: 4.84 µM (inactive)
[9]
  GI50: 9.86 µM (inactive)
[10]
  GI50: 13.9 µM (inactive)
[11]
  GI50: 1.85 µM (inactive)
[12]
  GI50: 4.72 µM (inactive)
[13]
  GI50: 4.41 µM (inactive)
[14]
  GI50: 8.57 µM (inactive)
[15]
  GI50: 2.51 µM (inactive)
[16]
  GI50: 2.43 µM
[17]
  GI50: 3.48 µM (inactive)
[18]
  GI50: 16.7 µM (inactive)
[19]
  GI50: 4.83 µM (inactive)
[20]
  GI50: 10.4 µM (inactive)
[21]
  GI50: 3.66 µM (inactive)
[22]
  GI50: 2.59 µM (inactive)
[23]
  GI50: 1.87 µM (inactive)
[24]
  GI50: 17.2 µM (inactive)
[25]
  GI50: 8.3 µM (inactive)
[56]
  GI50: 25.5 µM (inactive)
[26]
  GI50: 3.63 µM (inactive)
[27]
  GI50: 3.27 µM (inactive)
[28]
  GI50: 4.02 µM (inactive)
[57]
  GI50: 5.27 µM (inactive)
[29]
  GI50: 4.99 µM (inactive)
[30]
  GI50: 6.41 µM (inactive)
[31]
  GI50: 3.45 µM (inactive)
[32]
  GI50: 2.65 µM (inactive)
[33]
  GI50: 2.72 µM (inactive)
[35]
  GI50: 3.79 µM (inactive)
[36]
  GI50: 5.19 µM (inactive)
[37]
  GI50: 1.67 µM (inactive)
[38]
  GI50: 4.19 µM (inactive)
[39]
  GI50: 3.08 µM (inactive)
[40]
  GI50: 3.23 µM (inactive)
[41]
  GI50: 2.23 µM (inactive)
[42]
  GI50: 2.81 µM (inactive)
[43]
  GI50: 2.27 µM (inactive)
[44]
  GI50: 3.55 µM (inactive)
[45]
  GI50: 3.74 µM (inactive)
[46]
  GI50: 1.92 µM (inactive)
[47]
  GI50: 4.74 µM (inactive)
[48]
  GI50: 5.96 µM (inactive)
[49]
  GI50: 4.1 µM (inactive)
[50]
  GI50: 3.24 µM (inactive)
[51]
  GI50: 3.59 µM (inactive)
[52]
  GI50: 2.19 µM (inactive)
[53]
  GI50: 4.06 µM (inactive)
[54]
  GI50: 2.74 µM (inactive)
